Results taken from patent US20050009759A1 (priority 2001, published 2005).
Values after ≈ are worked out from the molar mass of the structure shown. Where two headings read alike, the source gives them in different places.

Assays:
L1210 cells = assay: In vitro cytotoxicity, microculture tetrazolium assay (MTA); assay type: cell-based; conditions: Mus musculus
Experimental: Cytotoxicity was tested against L1210 (mouse leukemic cell line) cells using the MTA assay.
L1210 cells were cultivated in RPMI 1640 medium (Gibco) supplemented with 10% fetal calf serum, 2 mM L-glutaine, 100 units/mL penicillin, 100 µg/mL streptomycin, and 10 mM HEPES buffer (pH=7.4). Cytotoxicity was measured by the microculture tetrazolium assay (MTA). Cells were exposed to graded concentrations of drug (nine serial dilutions in triplicate) for 48 h. Results are expressed as IC50, the concentration which reduced by 50% the optical density of treated cells with respect to the optical density of untreated controls.

Solubility in water = assay type: physicochemical; conditions: for solubility: water, in water / aqueous solvents
[1] = Stability in phosphate buffer solution followed by HPLC; assay type: physicochemical; conditions: phosphate buffer pH 7 (0.02 M, pH 7.2), 37° C.
Experimental: The stability of 1a was followed by HPLC measurements in buffer solution at pH 7 for 24 hours. More than 90% of the prodrug was recovered after that time, meaning that the prodrug 1a is stable in vitro.
(§1) Good separation in a short delay was obtained with a reversed-phase Phenyl analytical column (Spherisorb 250×4,6) using isocratic conditions (1 mL/min) of 60% phosphate buffer (0.02 M, pH 3) and 40% acetonitrile with UV detection at 254 nm. Using these conditions the retention time of etoposide, prodrug, and cyclized spacer were 4.9, 3.4, 5.8. min., respectively.
A solution of […] of prodrug 1a in 0.02 M phosphate buffer (pH 7.2) was incubated for various times at 37° C. Aliquots (100 μL) were taken at various times and analyzed by HPLC after dilution with eluent (300 μL).

[2] = target: E. coli β-D-glucuronidase (Escherichia coli, UniProt P05804); assay: Enzymatic cleavage by E. coli β-D-glucuronidase (kinetics of drug release, HPLC); assay type: biochemical; conditions: E. coli β-D-glucuronidase in phosphate buffer; 500 μg/mL prodrug, 20 μg/mL E. coli β-D-glucuronidase, phosphate buffer pH 7.2, 37° C.
E. coli β-D-glucuronidase, sequence (P05804 whole entry): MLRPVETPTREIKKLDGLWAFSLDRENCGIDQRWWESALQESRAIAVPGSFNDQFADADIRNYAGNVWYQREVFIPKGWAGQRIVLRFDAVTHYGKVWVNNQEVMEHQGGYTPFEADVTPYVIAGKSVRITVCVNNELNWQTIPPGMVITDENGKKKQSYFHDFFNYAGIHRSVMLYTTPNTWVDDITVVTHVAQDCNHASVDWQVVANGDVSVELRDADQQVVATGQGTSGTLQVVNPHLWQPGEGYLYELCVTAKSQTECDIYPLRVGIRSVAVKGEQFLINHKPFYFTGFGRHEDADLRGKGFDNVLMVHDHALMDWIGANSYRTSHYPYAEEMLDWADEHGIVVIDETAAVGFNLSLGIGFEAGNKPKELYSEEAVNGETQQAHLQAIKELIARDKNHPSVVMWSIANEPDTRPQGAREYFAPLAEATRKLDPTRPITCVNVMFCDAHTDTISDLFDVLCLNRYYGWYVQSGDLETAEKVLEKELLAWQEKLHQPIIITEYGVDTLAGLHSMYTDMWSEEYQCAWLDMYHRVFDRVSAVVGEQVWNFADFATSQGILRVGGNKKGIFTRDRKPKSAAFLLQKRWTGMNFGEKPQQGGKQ
Experimental: Prodrug 1a (500 μg/mp) was incubated with E. coli β-D-glucuronidase (20 μ/mL). Aliquot samples were analysed by IPLC at different times (FIG. 1: Enzymatic cleavage of prodrug 1a).
as §1
Hydrolysis was investigated by incubating a solution of 500 μg/mL of prodrug 3 and 20 μg/mL of E. coli β-D-glucuronidase in 0.02 M phosphate buffer (pH 7.2) at 37° C. Aliquots (100 μl) were taken at various times and analyzed by HPLC after dilution with 300 μl of eluent.

SMILES	IC50 (L1210 cells; L1210 cell line, 48 h exposure, without enzyme, read-out: IC50)	solubility (Solubility in water)	melting point	prodrug recovered/remaining after 24 hours [1]	IC50 (L1210 cells; L1210, 48 h)	IC50 (L1210 cells; L1210, read-out: IC50 after hydrolysis by β-glucuronidase)	half-life at 500 μg/mL [2]	fold more soluble than the corresponding drug (Solubility in water; in water, comparable conditions, versus etoposide)
COc1cc([C@@H]2c3cc4c(cc3[C@@H](O[C@@H]3O[C@@H]5CO[C@@H](C)O[C@H]5[C@H](O)[C@H]3O)[C@H]3COC(=O)[C@H]23)OCO4)cc(OC)c1O [etoposide, reference compound]	834 nM	0.1 mg/mL (≈ 0.17 mM)	–	–	–	–	–	–
COc1cc([C@@H]2c3cc4c(cc3C(OC3OC5COC(C)O[C@H]5C(O)[C@@H]3O)[C@H]3COC(=O)[C@H]23)OCO4)cc(OC)c1OC(=O)N(C)c1cc([N+](=O)[O-])ccc1O[C@@H]1OC(C(=O)O)[C@@H](O)C(O)C1O (stereo partly drawn) [prodrug 1a]	–	~20 mg/mL (≈ 20.9 mM)	186 °C	More than 90%	50200 nM	930 nM	< 25 min	approximately 200 fold
